Results on one compound are retold here after US9333265B2, “Organic-inorganic hybrid composite of polymerized nitroxide compound and inorganic particles” (UNIVERSITY OF TSUKUBA, priority 2012, dated 2016).

Each structure is given as a SMILES string.

A short description of data set [1]: Blood uptake suppression after intraperitoneal administration (ESR signal in blood). Type of data set: in vivo. An excerpt:
Normally, low-molecular-weight compounds are taken up into the blood after intraperitoneal administration, and are at risk of dispersing throughout the body.

For data set [2] the following is noted: high-dosage administration; cited from earlier work.

Regarding `CC1(C)CCCC(C)(C)N1[O]` [TEMPO], the “presence in blood after intraperitoneal administration (ESR signal)” value in data set [1] is on record as “present in blood for an hour or more”. The side-effects entry in data set [2] is “reduced blood pressure and inhibition of the mitochondrial energy-transfer system”.
